Reference: patent US11161876B2, “Anti-inflammatory nanofibers” (Northwestern University, priority 2015, dated 2021)
* marks the point of attachment. C16 alkyl = CCCCCCCCCCCCCCCC*

Experiments:
[1] = system: Rat Bladder Augmentation Model; assay: Blood vessel quantification in areas of bladder tissue regeneration; assay type: in vivo; conditions: means±SE
Experimental: (§1) Athymic female rats (weighing ˜200 g and 8-10 weeks old; National Cancer Institute Animal Production Program) underwent bladder augmentation (ref. 15; herein incorporated by reference in its entirety). Athymic rats were chosen for this study to solely examine the innate immune response to inflammation without influence of the adaptive immune response. In order to induce anesthesia, animals were given intraperitoneal injections of 60 mg/kg ketamine and 5 mg/kg xylazine. A second injection consisting of Buprenex (1 mg/kg) was administered subcutaneously to alleviate any pain/discomfort during and following surgical procedures. An approximate 1.5 cm midline vertical skin incision was created to expose the abdominal fascia and muscles. This was immediately followed by the separation of the wall leading to the identification of the bladder. An approximate 70% supratrigonal cystectomy was performed from anterior to posterior creating a clamshell. Immediately prior to bladder augmentation procedures, samples of the pro-inflammatory biological scaffold, small intestinal submucosa (SIS (0.5×0.5 cm); Cook Biotech.) (refs. 12,13,16; herein incorporated by reference in their entireties) were thoroughly dip-coated separately in one of the previously described AIF-PAs following gelation procedures. The sections of SIS were dip-coated for approximately 20 seconds and allowed to adhere to the SIS for an additional 30 seconds. Dip-coating procedures were performed at room temperature in air. The cystectomized bladder defect was then augmented with: 1) SIS (non-AIF-PA coated SIS; n=8 animals over both time-points); 2) AIF-PA1 coated SIS (denoted as SIS/AIF-PA1; n=11 animals over both time-points); 3) AIF-PA2 coated SIS (denoted as SIS/AIF-PA2; n=8 animals over both time-points); 4) AIF-PA3 coated SIS (denoted as SIS/AIF-PA3; n=3); 5) AIF-PA4 coated SIS (denoted as SIS/AIF-PA4; n=3 animals); 6) AIF-PA5 coated SIS (denoted as SIS/AIF-PA5; n=3 animals); and 7) AIFC-PA6 coated SIS (denoted as SIS/AIFC-PA6; n=9 animals over both time-points). The bladder was finally covered with omentum after being closed in a watertight manner utilizing 7-0 polyglactin suture. The abdominal wall was then closed in a single layer with 5-0 ethibond running suture and the skin re-approximated with 9 mm autoclips. Each group was sacrificed at 10 day and 5 week time-points.
Trichrome sample images were opened with Adobe Photoshop CS3 and were initially characterized utilizing a Nikon Eclipse 50i Microscope in addition to Spot Advanced Imaging Software. Vessel numbers were quantified utilizing the pen tool based upon n=10 images per graft in regenerated areas. Individual vessels were selected manually and subsequently quantified using the image histogram tool to acquire pixel density for each vessel. Data is represented as mean number of vessels/mm^2 (means±SE).

[2] = system: MPO+ neutrophils; assay: Immunofluorescence quantification of MPO+ neutrophils in regenerated bladder tissue; assay type: in vivo, rat
Experimental: as §1
Tissue sections comprised of SIS alone, SIS/AIF-PA1, SIS/AIF-PA2, and SIS/AIF-PA6 augmentations were subjected to immunofluorescence staining by initially undergoing antigen retrieval which consisted of 15 min of boiling in citrate buffer (0.01M citrate solution, pH 6.0 with 0.05% Tween-20) followed by cooling at room temperature for approximately 20 minutes. The antibody staining process consisted of a blocking step for 15 min in bovine serum albumin (BSA, 5 mg/ml) followed by a 40 minutes incubation at room temperature with the primary antibody. After washing with DPBS, slides were incubated for 30 min with a secondary antibody and eventually rinsed with DPBS and air dried. Slides were mounted with Vectashield (Vector Laboratories). Primary antibodies were directed against epitopes for the inflammatory markers CD68 (macrophage) (refs. 18,19; herein incorporated by reference in their entireties) MPO (neutrophil) (ref. 20; herein incorporated by reference in its entirety) or the inflammation-related proteins IL1β, TNFα, IL-10, IL-13, CD206 (M2 macrophage) (refs. 21-25; herein incorporated by reference in their entireties) and CD86 (M1 macrophage) (ref. 26; herein incorporated by reference in its entirety). Antibodies directed against the ECM in regenerating bladder tissue (including COL4A3 and fibronectin) were also utilized. Alexa Red 555 or FITC conjugated secondary antibodies (Molecular Probes) were utilized for visualization (ref. 15; herein incorporated by reference in its entirety). […]

[3] = system: Rat Bladder Augmentation Model; assay: Bladder capacity measurement of augmented bladders; assay type: in vivo; conditions: 5 weeks post-augmentation vs pre-surgery; means ± SE
Experimental: Athymic female rats (weighing ˜200 g and 8-10 weeks old; National Cancer Institute Animal Production Program) underwent bladder augmentation (ref. 15; herein incorporated by reference in its entirety). Athymic rats were chosen for this study to solely examine the innate immune response to inflammation without influence of the adaptive immune response. In order to induce anesthesia, animals were given intraperitoneal injections of 60 mg/kg ketamine and 5 mg/kg xylazine. A second injection consisting of Buprenex (1 mg/kg) was administered subcutaneously to alleviate any pain/discomfort during and following surgical procedures. An approximate 1.5 cm midline vertical skin incision was created to expose the abdominal fascia and muscles. This was immediately followed by the separation of the wall leading to the identification of the bladder. An approximate 70% supratrigonal cystectomy was performed from anterior to posterior creating a clamshell. Immediately prior to bladder augmentation procedures, samples of the pro-inflammatory biological scaffold, small intestinal submucosa (SIS (0.5×0.5 cm); Cook Biotech.) (refs. 12,13,16; herein incorporated by reference in their entireties) were thoroughly dip-coated separately in one of the previously described AIF-PAs following gelation procedures. The sections of SIS were dip-coated for approximately 20 seconds and allowed to adhere to the SIS for an additional 30 seconds. Dip-coating procedures were performed at room temperature in air. […]
The bladders of anesthetized athymic rats were exposed through the abdomen as previously described. […] Continuous reading of the transvesical pressure was measured and plotted using LabChart 7.3 software (AD Instruments). […] Bladder capacity was measured by a modified protocol (ref. 13; herein incorporated by reference in its entirety). […]

Substance | number of vessels in regenerated tissue ([1]; 5W post-augmentation) | number of vessels in regenerated tissue ([1]; 10D post-augmentation) | percentage of cells positive for MPO ([2]; 5 weeks post-augmentation) | Bladder Capacity Recovery [3] | percentage of cells positive for MPO ([2]; 10 days post-augmentation)
C16-VVVAAAEEEKLMSQKMVD (SEQ ID NO:6) ({C16 alkyl}-VVVAAAEEEKLMSQKMVD-NH2) [SIS/AIFC-PA6, reference compound] | 53.3±4.4 vessels/mm^2 | 37.0±2.3 vessels/mm^2 | 17.6±1.8% | 105.4 ± 5.1% | –
C16-VVVAAAEEEMQMKKVLDS (SEQ ID NO:1) ({C16 alkyl}-VVVAAAEEEMQMKKVLDS-NH2) [SIS/AIF-PA1, anti-inflammatory peptide amphiphile, tested dip-coated on small intestinal submucosa (SIS) scaffold] | 90.7±4.5 vessels/mm^2 | 71.0±1.5 vessels/mm^2 | 5.2±0.7% | 112.1 ± 3.3% | 6.9±0.7%
C16-VVVAAAEEEHDMNKVLDL (SEQ ID NO:2) ({C16 alkyl}-VVVAAAEEEHDMNKVLDL-NH2) [SIS/AIF-PA2, anti-inflammatory peptide amphiphile, tested dip-coated on small intestinal submucosa (SIS) scaffold] | 96.7±4.4 vessels/mm^2 | 71.5±6.7 vessels/mm^2 | 7.2±1.1% | 104.4 ± 6.7% | 9.0±0.5%
